PubChem BioAssay (NCI)
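Results reflect a 48-hour exposure of cells in 96-well plates to compound at five concentrations. The concentration for 50% growth inhibition is given as GI50. TGI denotes the concentration required for complete inhibition of growth.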

What was measured:
Test in all cases: NCI tumour cell line growth inhibition, 48 h
[1] = test system: KM12 colon
[2] = test system: HOP-62 NSCLC
[3] = test system: OVCAR-8 ovarian
[4] = test system: U251 CNS
[5] = test system: EKVX NSCLC
[6] = test system: MCF7 breast
[7] = test system: OVCAR-5 ovarian
[8] = test system: SR leukemia
[9] = test system: NCI-H460 lung
[10] = test system: A549 NSCLC
[11] = test system: M14 melanoma
[12] = test system: NCI-H226 lung
[13] = test system: NCI/ADR-RES ovarian
[14] = test system: HCC-2998 colon
[15] = test system: SK-MEL-2 melanoma
[16] = test system: UACC-257 melanoma
[17] = test system: PC-3 prostate
[18] = test system: HS 578T breast
[19] = test system: MDA-MB-435
[20] = test system: SW-620 colon
[21] = test system: UACC-62 melanoma
[22] = test system: IGROV1 ovarian
[23] = test system: A498 renal
[24] = test system: OVCAR-3 ovarian
[25] = test system: RPMI-8226 leukemia
[26] = test system: HL-60(TB) leukemia
[27] = test system: COLO 205 colon
[28] = test system: SF-539 CNS
[29] = test system: TK-10 renal
[30] = test system: CCRF-CEM leukemia
[31] = test system: MALME-3M melanoma
[32] = test system: T-47D breast
[33] = test system: OVCAR-4 ovarian
[34] = test system: LOX IMVI melanoma
[35] = test system: SK-OV-3 ovarian
[36] = test system: HCT-116 colon
[37] = test system: DU-145 prostate
[38] = test system: ACHN renal
[39] = test system: UO-31 renal
[40] = test system: MOLT-4 leukemia
[41] = test system: 786-0 renal
[42] = test system: HCT-15 colon
[43] = test system: SN12C renal
[44] = test system: K-562 leukemia
[45] = test system: SF-295 CNS
[46] = test system: SK-MEL-28 melanoma
[47] = test system: NCI-H522 lung
[48] = test system: HT29 colon
[49] = test system: SF-268 CNS
[50] = test system: BT-549 breast
[51] = test system: SNB-19 CNS
[52] = test system: SK-MEL-5 melanoma
[53] = test system: RXF 393 renal
[54] = test system: CAKI-1 renal
[55] = test system: MDA-MB-231 breast
[56] = test system: NCI-H23 lung
[57] = test system: SNB-75 CNS

## COCCN1CCN(Cc2ccc(-c3n[nH]c4c3C(=O)c3c(NC(=O)NN5CCOCC5)cccc3-4)cc2)CC1
[1]
  GI50: 0.0278 µM
  TGI: 0.572 µM
[2]
  GI50: 0.0324 µM
  TGI: 2.94 µM
[3]
  GI50: 0.0309 µM
[4]
  GI50: 0.0204 µM
[5]
  GI50: 0.0348 µM
[6]
  GI50: 0.00766 µM
  TGI: > 5.52 µM
[7]
  GI50: 0.0212 µM
  TGI: > 4.7 µM
[8]
  GI50: 0.00985 µM
  TGI: 0.0599 µM
[9]
  GI50: 0.0274 µM
  TGI: 0.623 µM
[10]
  GI50: 0.0289 µM
  TGI: 0.214 µM
[11]
  GI50: 0.0296 µM
  TGI: 0.38 µM
[12]
  GI50: 0.0329 µM
  TGI: > 2.46 µM
[13]
  GI50: 0.713 µM
  TGI: > 10 µM
[14]
  GI50: 0.0262 µM
  TGI: 0.274 µM
[15]
  GI50: 0.0212 µM
  TGI: 0.0556 µM
[16]
  GI50: 0.0336 µM
  TGI: 0.281 µM
[17]
  GI50: 0.023 µM
  TGI: > 3.86 µM
[18]
  GI50: 0.0293 µM
  TGI: 1.22 µM
[19]
  GI50: 0.0227 µM
  TGI: 0.424 µM
[20]
  GI50: 0.0242 µM
  TGI: > 6.22 µM
[21]
  GI50: 0.0145 µM
  TGI: 0.0462 µM
[22]
  GI50: 0.0226 µM
  TGI: 1.19 µM
[23]
  GI50: 0.0292 µM
  TGI: 0.141 µM
[24]
  GI50: 0.0242 µM
[25]
  GI50: 0.0288 µM
  TGI: 0.0833 µM
[26]
  GI50: 0.00888 µM
  TGI: 0.0453 µM
[27]
  GI50: 0.0151 µM
  TGI: 0.0474 µM
[28]
  GI50: 0.029 µM
  TGI: 0.086 µM
[29]
  GI50: 0.0199 µM
  TGI: 0.422 µM
[30]
  GI50: 0.0211 µM
[31]
  GI50: 0.0705 µM
[32]
  GI50: 0.0216 µM
[33]
  GI50: 0.0322 µM
  TGI: 0.932 µM
[34]
  GI50: 0.0185 µM
  TGI: 0.12 µM
[35]
  GI50: 0.0457 µM
  TGI: > 9.41 µM
[36]
  GI50: 0.00897 µM
  TGI: 1.14 µM
[37]
  GI50: 0.0267 µM
[38]
  GI50: 0.0512 µM
  TGI: > 10 µM
[39]
  GI50: 0.0916 µM
  TGI: 9.36 µM
[40]
  GI50: 0.0212 µM
  TGI: 0.228 µM
[41]
  GI50: 0.0336 µM
  TGI: > 10 µM
[42]
  GI50: 0.117 µM
  TGI: 2 µM
[43]
  GI50: 0.0307 µM
  TGI: > 10 µM
[44]
  GI50: 0.032 µM
  TGI: > 10 µM
[45]
  GI50: 0.0345 µM
  TGI: > 10 µM
[46]
  GI50: 0.0246 µM
  TGI: 0.471 µM
[47]
  GI50: 0.0194 µM
  TGI: 0.0736 µM
[48]
  GI50: 0.0347 µM
  TGI: 0.299 µM
[49]
  GI50: 0.0318 µM
[50]
  GI50: 0.0308 µM
  TGI: 0.209 µM
[51]
  GI50: 0.0298 µM
  TGI: > 10 µM
[52]
  GI50: 0.0269 µM
[53]
  GI50: 0.0189 µM
  TGI: 0.0458 µM
[54]
  GI50: 0.0277 µM
  TGI: > 10 µM
[55]
  GI50: 0.0194 µM
  TGI: 0.584 µM
[56]
  GI50: 0.0227 µM
  TGI: 0.129 µM
[57]
  GI50: 0.0214 µM
  TGI: 0.071 µM
